Test results taken from ChEMBL document CHEMBL1201862, “PubChem BioAssay data set” (2004).
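Protocol summary: plate cells (96-well), add compound at 5 concentrations, incubate 48 h, interpolate endpoints linearly. GI50 marks 50% less growth.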 The source made the active and inactive calls. Cut-off read from the data, not from the text of the source: active = GI50 up to about 1.1 µM and inactive = higher.

Assays:
Experiment in all cases: NCI anticancer screen, dose series, 48 h
MOLT-4 = tested on: MOLT-4
RPMI-8226 = tested on: RPMI-8226
NCI-H460 = tested on: NCI-H460
HCT-15 = tested on: HCT-15
OVCAR-3 = tested on: OVCAR-3
SK-MEL-28 = tested on: SK-MEL-28
KM12 = tested on: KM12
SK-MEL-5 = tested on: SK-MEL-5
HT-29 = tested on: HT-29
NCI-H522 = tested on: NCI-H522
UO-31 = tested on: UO-31
CAKI-1 = tested on: CAKI-1
TK-10 = tested on: TK-10
CCRF-CEM = tested on: CCRF-CEM
SR = tested on: SR

CCCc1nc(NC#N)nc(C(=O)Nc2ccccc2)c1CC
GI50 (MOLT-4): > 100 µM (inactive)
GI50 (RPMI-8226): > 100 µM (inactive)
GI50 (NCI-H460): > 100 µM (inactive)
GI50 (HCT-15): > 100 µM
GI50 (OVCAR-3): > 100 µM (inactive)
GI50 (SK-MEL-28): > 100 µM (inactive)
GI50 (KM12): > 100 µM (inactive)
GI50 (SK-MEL-5): > 100 µM (inactive)
GI50 (HT-29): > 100 µM (inactive)
GI50 (NCI-H522): > 100 µM (inactive)
GI50 (UO-31): > 100 µM (inactive)
GI50 (CAKI-1): > 100 µM (inactive)
GI50 (TK-10): > 100 µM (inactive)

N#Cc1sc2nc3c(c(-c4ccccc4)c2c1N)CCCC3
GI50 (MOLT-4): > 100 µM (inactive)
GI50 (CCRF-CEM): > 100 µM (inactive)
GI50 (RPMI-8226): > 100 µM (inactive)
GI50 (NCI-H460): 55.2 µM (inactive)
GI50 (HCT-15): 60.5 µM
GI50 (OVCAR-3): > 10 µM (inactive)
GI50 (SK-MEL-28): > 100 µM (inactive)
GI50 (KM12): > 100 µM (inactive)
GI50 (HT-29): > 100 µM (inactive)
GI50 (SR): > 100 µM (inactive)
GI50 (NCI-H522): 66.5 µM (inactive)
GI50 (UO-31): > 100 µM (inactive)
GI50 (CAKI-1): > 100 µM (inactive)
GI50 (TK-10): > 100 µM (inactive)

Cc1ccc(C)c(N2C(=O)C(=O)C(c3nc4ccccc4s3)/C(=N/NC(=O)NN)C2=O)c1 (stereo not drawn)
GI50 (MOLT-4): > 100 µM (inactive)
GI50 (CCRF-CEM): > 100 µM (inactive)
GI50 (NCI-H460): > 100 µM (inactive)
GI50 (HCT-15): > 100 µM
GI50 (OVCAR-3): > 100 µM (inactive)
GI50 (SK-MEL-28): > 100 µM (inactive)
GI50 (KM12): > 100 µM (inactive)
GI50 (SK-MEL-5): > 100 µM (inactive)
GI50 (HT-29): > 100 µM (inactive)
GI50 (SR): > 100 µM (inactive)
GI50 (NCI-H522): > 100 µM (inactive)
GI50 (UO-31): > 100 µM (inactive)
GI50 (CAKI-1): > 100 µM (inactive)
GI50 (TK-10): > 100 µM (inactive)

O=c1nc2sc3ccc4ccccc4c3n2nc1O
GI50 (MOLT-4): 57.4 µM (inactive)
GI50 (CCRF-CEM): 40.1 µM (inactive)
GI50 (RPMI-8226): > 10 µM (inactive)
GI50 (NCI-H460): 39.3 µM (inactive)
GI50 (OVCAR-3): 55.2 µM (inactive)
GI50 (SK-MEL-28): 40.4 µM (inactive)
GI50 (KM12): > 100 µM (inactive)
GI50 (SK-MEL-5): 43.8 µM (inactive)
GI50 (HT-29): 47.9 µM (inactive)
GI50 (NCI-H522): 53.7 µM (inactive)
GI50 (TK-10): > 100 µM (inactive)

O=C(O)\C=C/C=C/C=C/C=C/C(=O)O
GI50 (MOLT-4): > 100 µM (inactive)
GI50 (CCRF-CEM): > 100 µM (inactive)
GI50 (RPMI-8226): > 100 µM (inactive)
GI50 (NCI-H460): > 100 µM (inactive)
GI50 (HCT-15): > 100 µM
GI50 (OVCAR-3): > 100 µM (inactive)
GI50 (SK-MEL-28): > 100 µM (inactive)
GI50 (KM12): > 100 µM (inactive)
GI50 (SK-MEL-5): > 100 µM (inactive)
GI50 (HT-29): > 100 µM (inactive)
GI50 (SR): > 100 µM (inactive)
GI50 (NCI-H522): > 100 µM (inactive)
GI50 (UO-31): > 100 µM (inactive)
GI50 (CAKI-1): > 100 µM (inactive)

O=C1/C(=C/c2ccccc2Cl)COc2ccc(Br)cc21
GI50 (MOLT-4): 18 µM (inactive)
GI50 (CCRF-CEM): 4.49 µM (inactive)
GI50 (RPMI-8226): 2.1 µM (inactive)
GI50 (NCI-H460): > 100 µM (inactive)
GI50 (OVCAR-3): 37.3 µM (inactive)
GI50 (SK-MEL-28): > 100 µM (inactive)
GI50 (KM12): 22.4 µM (inactive)
GI50 (HT-29): > 100 µM (inactive)
GI50 (NCI-H522): 20.6 µM (inactive)
GI50 (UO-31): 55.7 µM (inactive)
GI50 (TK-10): > 100 µM (inactive)

CC(c1ccccc1)N1O[C@]12CC[C@@]1(C)C(CCCC13OCCO3)C2 (stereo partly drawn)
GI50 (RPMI-8226): 35.7 µM (inactive)
GI50 (NCI-H460): 20.4 µM (inactive)
GI50 (HCT-15): 23.3 µM
GI50 (OVCAR-3): 18.7 µM (inactive)
GI50 (SK-MEL-28): 47.8 µM (inactive)
GI50 (KM12): 21.3 µM (inactive)
GI50 (SK-MEL-5): 36.1 µM (inactive)
GI50 (HT-29): 21.7 µM (inactive)
GI50 (SR): 16.7 µM (inactive)
GI50 (NCI-H522): 17.2 µM (inactive)
GI50 (UO-31): 18 µM (inactive)
GI50 (CAKI-1): 22.2 µM (inactive)
GI50 (TK-10): 18.3 µM (inactive)

C#CCOCn1cnc2c(S)ncnc21
GI50 (CCRF-CEM): > 100 µM (inactive)
GI50 (RPMI-8226): > 100 µM (inactive)
GI50 (NCI-H460): > 100 µM (inactive)
GI50 (HCT-15): > 100 µM
GI50 (OVCAR-3): > 100 µM (inactive)
GI50 (SK-MEL-28): > 100 µM (inactive)
GI50 (KM12): > 100 µM (inactive)
GI50 (SK-MEL-5): > 100 µM (inactive)
GI50 (HT-29): > 100 µM (inactive)
GI50 (NCI-H522): > 100 µM (inactive)
GI50 (UO-31): > 100 µM (inactive)
GI50 (CAKI-1): > 100 µM (inactive)
GI50 (TK-10): > 100 µM (inactive)
